In patent US12209071B2, “Triazine derivatives for treating diseases relating to neurotrophins” (AlzeCure Pharma AB, priority 2018, dated 2025):

Assays:
[1] = target: T1, TrkB (Homo sapiens, UniProt Q16620); experiment: Enzyme Fragment Complementation cell-based assay, TrkB; conditions: U2OS-cells over-expressing TrkB; ligand 10 ng/mL; 3 hours incubation
T1 construct: expressed in transfected cells; host or cells: U2OS
Text: (§1) A high throughput cell-based screen has been used to identify positive modulators of TrkA, TrkB and TrkC. The screen involves the use of cell-based assay overexpressing TrkA, TrkB or TrkC. The purpose of the assay is to identify compounds that modulate neurotrophin signalling (Forsell et al 2012). The assay can be used in inhibitor mode using a high concentration of ligand, in modulator mode using an intermediate concentration and in agonist mode using a low concentration of ligand.
(§2) The assay uses Enzyme Fragment Complementation (EFC) technique, which is a proximity-based assay. Briefly, cells used in this assay over-express two fusion proteins, i.e. the receptor, which can be either one of TrkA, TrkB, TrkC, IGF1R or FGFR1, fused to a small peptide of beta-galactosidase and an adaptor protein, i.e. SHC1 (or any other Trk-adaptor protein) fused to the major part of beta-galactosidase. […] The proximity between the small activating peptide on the receptor and the major part of beta-galactosidase on the adaptor protein leads to an active beta-galactosidase enzyme. The activation of the receptor is quantified by measuring the amount of active beta-galactosidase by its conversion of a non-luminescent substrate into a luminescent product.
(§3) U2OS-cells, over-expressing TrkA or TrkB or TrkC, are plated in 96- or 384-well plates and incubated overnight. Alternatively, cryopreserved HEK293-cells expressing IGFR1 or cryopreserved U2OS-cells expressing FGFR1 were plated in 96- or 384-well plates. On the following day, test compound was pre-mixed with ligand (NGF, BDNF, NT-3, IGF-1 or basic fibroblast growth factor (bFGF(FGF-2))) and the ligand-compound mixture is then added to the cells to yield a final ligand concentration of 10 ng/mL. After 3 hours of incubation at room temperature, the incubation is stopped by the addition of a beta-galactosidase substrate mixture containing detergents. The substrate mixture is incubated for 60 minutes at ambient temperature. The luminescence is thereafter read by the use of a plate reader.

[2] = target: T2, TrkA (Homo sapiens, UniProt P04629); experiment: Enzyme Fragment Complementation cell-based assay, TrkA; conditions: U2OS-cells over-expressing TrkA; ligand 10 ng/mL; 3 hours incubation
T2 construct: expressed in transfected cells; host or cells: U2OS
Text: as §1, §2, §3

[3] = target: T3, IGF1R (Homo sapiens, UniProt P08069); experiment: Enzyme Fragment Complementation cell-based assay, IGF1R; conditions: cryopreserved HEK293-cells expressing IGFR1; ligand 10 ng/mL; 3 hours incubation
T3 construct: expressed in transfected cells; host or cells: HEK293 (cryopreserved)
Text: as §1, §2, §3

[4] = target: T4, FGFR1 (Homo sapiens, UniProt P11362); experiment: Enzyme Fragment Complementation cell-based assay, FGFR1; conditions: cryopreserved U2OS-cells expressing FGFR1; ligand 10 ng/mL; 3 hours incubation
T4 construct: expressed in transfected cells; host or cells: U2OS (cryopreserved)
Text: as §1, §2, §3

[5] = system: ephrin type-B receptor 2 (EphB2); conditions: Suzuki et al., FEBS Open Bio 2016; cited from earlier work
[6] = system: mice treated with scopolamine; experiment: Passive avoidance task; assay type: in vivo; conditions: C57/Bl6 mice; s.c. once per day for 4 days prior to PA training; scopolamine 0.3 mg/kg s.c. 30 min prior to training; FIG. 1
Experimental: Passive avoidance (PA) is an aversive learning task based on classical (Pavlovian) fear conditioning that allows for analysis of both facilitation and impairment of memory function by adjusting the unconditioned stimulus, i.e. the electrical foot shock. Commonly a cognitive-impairing agent is administered to the animals to mimic the neurochemical disturbances present in various cognitive disorders e.g. cholinergic (scopolamine) and glutamatergic (MK-801) deficits.
Prior to testing, the animals are brought to the experimental room where they are allowed to habituate for 60 min. The test is conducted using a modified shuttle box with two communicating compartments of equal size with a small sliding door built into the separating wall and a stainless-steel bar floor. One of the compartments is not illuminated and thus black whereas the other compartment (the light one) is illuminated by an electric bulb, installed on the top of a plexiglass cover. The PA training is conducted in a single session. […] Latency to cross over into the dark compartment (training latency) is recorded. […] The latency to cross over into the dark compartment with all four feet is measured (retention latency) as well as time in bright compartment and a number of other relevant parameters (e.g. number of visits in the dark compartment). […]

[7] = target: T5, TrkC (Homo sapiens, UniProt Q16288); experiment: Enzyme Fragment Complementation cell-based assay, TrkC; conditions: U2OS-cells over-expressing TrkC; ligand 10 ng/mL; 3 hours incubation
T5 construct: expressed in transfected cells; host or cells: U2OS
Text: as §1, §2, §3

T1 sequence (Q16620 32-822): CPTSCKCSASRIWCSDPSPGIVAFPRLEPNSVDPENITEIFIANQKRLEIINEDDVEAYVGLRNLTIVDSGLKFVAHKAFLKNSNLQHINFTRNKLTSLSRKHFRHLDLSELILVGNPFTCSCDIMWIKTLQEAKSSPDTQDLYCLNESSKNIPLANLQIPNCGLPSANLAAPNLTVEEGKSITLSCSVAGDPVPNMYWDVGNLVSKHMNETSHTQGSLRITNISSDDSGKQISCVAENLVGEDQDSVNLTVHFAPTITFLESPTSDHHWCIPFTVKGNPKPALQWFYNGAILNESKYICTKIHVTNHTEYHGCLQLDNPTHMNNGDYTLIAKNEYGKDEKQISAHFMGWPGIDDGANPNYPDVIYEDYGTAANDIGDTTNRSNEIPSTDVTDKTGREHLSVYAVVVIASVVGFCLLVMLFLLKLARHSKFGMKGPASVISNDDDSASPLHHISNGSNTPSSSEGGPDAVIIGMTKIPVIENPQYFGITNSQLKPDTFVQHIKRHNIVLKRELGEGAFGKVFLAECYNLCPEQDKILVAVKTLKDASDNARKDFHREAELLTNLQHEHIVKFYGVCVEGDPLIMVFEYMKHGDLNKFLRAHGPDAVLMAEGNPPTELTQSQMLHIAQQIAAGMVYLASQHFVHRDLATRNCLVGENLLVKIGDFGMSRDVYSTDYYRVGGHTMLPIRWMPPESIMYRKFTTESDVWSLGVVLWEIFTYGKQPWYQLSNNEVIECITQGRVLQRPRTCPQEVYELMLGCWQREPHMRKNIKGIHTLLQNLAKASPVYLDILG
T5 sequence (Q16288 32-839): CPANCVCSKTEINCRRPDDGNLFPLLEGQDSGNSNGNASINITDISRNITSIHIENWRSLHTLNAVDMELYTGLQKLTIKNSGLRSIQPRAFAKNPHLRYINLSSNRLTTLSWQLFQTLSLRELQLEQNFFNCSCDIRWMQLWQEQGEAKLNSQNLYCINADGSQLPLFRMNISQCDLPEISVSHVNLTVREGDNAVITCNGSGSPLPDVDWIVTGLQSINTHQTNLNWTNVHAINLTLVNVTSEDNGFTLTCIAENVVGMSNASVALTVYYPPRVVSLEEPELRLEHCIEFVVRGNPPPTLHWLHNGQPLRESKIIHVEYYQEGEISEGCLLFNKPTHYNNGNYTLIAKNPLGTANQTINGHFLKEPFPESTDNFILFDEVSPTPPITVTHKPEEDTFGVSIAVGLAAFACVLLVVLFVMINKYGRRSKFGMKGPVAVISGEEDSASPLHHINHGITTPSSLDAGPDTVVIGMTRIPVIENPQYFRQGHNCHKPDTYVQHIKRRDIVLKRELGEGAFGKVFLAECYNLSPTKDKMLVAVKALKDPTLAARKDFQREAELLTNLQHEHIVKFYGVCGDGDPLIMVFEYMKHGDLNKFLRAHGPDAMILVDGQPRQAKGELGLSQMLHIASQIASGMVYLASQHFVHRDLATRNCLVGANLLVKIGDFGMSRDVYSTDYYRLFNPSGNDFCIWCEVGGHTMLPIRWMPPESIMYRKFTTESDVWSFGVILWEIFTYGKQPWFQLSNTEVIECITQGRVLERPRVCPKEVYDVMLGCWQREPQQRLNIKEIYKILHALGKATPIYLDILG
T2 sequence (P04629 33-796): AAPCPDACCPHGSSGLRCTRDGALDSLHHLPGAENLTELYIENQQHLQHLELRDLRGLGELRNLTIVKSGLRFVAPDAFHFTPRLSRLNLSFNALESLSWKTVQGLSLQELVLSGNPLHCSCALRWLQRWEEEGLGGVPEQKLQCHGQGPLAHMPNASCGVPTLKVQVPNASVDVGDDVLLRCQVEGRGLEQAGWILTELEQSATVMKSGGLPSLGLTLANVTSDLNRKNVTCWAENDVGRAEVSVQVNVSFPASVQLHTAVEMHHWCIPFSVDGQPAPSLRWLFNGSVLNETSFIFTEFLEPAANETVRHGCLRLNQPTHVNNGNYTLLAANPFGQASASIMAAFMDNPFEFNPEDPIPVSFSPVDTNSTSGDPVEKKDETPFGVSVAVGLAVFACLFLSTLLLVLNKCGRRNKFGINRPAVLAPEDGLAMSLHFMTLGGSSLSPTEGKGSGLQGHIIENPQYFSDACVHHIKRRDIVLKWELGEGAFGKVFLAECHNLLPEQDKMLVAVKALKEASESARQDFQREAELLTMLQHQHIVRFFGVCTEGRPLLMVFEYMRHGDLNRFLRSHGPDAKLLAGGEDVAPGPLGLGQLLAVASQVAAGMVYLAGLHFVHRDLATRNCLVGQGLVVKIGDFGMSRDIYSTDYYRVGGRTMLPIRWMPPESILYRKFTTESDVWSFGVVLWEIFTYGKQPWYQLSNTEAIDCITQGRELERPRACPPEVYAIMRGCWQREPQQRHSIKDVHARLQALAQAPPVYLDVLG
T4 sequence (P11362 22-822): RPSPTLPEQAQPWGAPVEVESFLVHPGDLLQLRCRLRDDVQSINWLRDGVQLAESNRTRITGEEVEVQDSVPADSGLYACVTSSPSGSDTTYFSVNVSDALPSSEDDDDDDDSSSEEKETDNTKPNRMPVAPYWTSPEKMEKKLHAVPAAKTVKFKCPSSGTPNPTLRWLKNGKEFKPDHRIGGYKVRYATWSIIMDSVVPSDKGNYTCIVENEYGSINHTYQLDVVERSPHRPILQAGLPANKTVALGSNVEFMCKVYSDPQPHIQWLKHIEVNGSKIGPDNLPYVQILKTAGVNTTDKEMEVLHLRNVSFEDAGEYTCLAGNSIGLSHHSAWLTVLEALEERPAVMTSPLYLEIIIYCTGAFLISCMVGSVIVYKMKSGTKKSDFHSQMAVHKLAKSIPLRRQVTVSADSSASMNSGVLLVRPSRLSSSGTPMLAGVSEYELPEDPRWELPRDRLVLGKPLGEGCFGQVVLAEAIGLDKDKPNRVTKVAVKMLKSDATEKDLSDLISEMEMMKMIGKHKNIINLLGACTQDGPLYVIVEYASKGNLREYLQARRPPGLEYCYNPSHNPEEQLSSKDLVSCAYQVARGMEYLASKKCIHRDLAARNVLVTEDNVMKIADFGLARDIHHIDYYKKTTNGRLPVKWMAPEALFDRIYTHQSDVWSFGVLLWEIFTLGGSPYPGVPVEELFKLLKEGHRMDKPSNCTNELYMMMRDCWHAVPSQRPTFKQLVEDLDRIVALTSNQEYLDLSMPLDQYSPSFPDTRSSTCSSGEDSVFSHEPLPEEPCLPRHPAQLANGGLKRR
T3 sequence (P08069 31-736 limits assumed): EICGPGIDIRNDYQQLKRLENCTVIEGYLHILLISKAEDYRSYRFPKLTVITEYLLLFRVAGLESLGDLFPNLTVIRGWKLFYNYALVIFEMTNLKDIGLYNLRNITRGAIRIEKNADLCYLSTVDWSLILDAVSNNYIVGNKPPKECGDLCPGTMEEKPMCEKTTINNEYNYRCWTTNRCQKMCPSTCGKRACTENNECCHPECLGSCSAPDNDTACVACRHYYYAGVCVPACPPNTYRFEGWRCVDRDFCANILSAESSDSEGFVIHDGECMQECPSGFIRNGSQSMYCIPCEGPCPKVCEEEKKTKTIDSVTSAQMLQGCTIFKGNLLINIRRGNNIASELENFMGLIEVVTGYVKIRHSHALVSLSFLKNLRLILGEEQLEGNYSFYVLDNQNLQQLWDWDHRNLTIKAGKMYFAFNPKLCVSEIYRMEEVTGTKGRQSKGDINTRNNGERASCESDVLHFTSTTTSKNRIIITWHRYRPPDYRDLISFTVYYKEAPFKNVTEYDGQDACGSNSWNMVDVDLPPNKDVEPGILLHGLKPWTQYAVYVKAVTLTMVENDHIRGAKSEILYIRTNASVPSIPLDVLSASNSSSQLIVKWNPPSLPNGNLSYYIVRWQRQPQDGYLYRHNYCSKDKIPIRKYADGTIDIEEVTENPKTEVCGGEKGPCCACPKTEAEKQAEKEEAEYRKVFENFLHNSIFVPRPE
T3 sequence (P08069 741-1367 limits assumed): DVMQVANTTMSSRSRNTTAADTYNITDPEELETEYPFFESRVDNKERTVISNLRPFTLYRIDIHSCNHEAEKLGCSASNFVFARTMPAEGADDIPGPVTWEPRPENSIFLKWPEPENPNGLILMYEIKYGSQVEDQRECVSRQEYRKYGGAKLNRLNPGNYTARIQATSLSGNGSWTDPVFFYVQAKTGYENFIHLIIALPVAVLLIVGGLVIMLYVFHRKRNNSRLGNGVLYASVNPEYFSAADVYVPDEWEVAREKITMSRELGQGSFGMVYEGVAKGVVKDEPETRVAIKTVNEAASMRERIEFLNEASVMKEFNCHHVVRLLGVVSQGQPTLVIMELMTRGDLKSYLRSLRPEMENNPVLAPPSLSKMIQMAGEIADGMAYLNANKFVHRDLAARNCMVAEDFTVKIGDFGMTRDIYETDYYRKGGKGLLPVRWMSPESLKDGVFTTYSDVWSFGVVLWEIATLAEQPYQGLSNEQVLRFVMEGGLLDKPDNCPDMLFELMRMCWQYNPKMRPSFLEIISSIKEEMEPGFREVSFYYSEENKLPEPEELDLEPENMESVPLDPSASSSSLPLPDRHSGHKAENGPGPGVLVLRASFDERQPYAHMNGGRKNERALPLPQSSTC

| SMILES | EC50 [1] [µM] | EC50 [2] [µM] | EC50 [3] [µM] | EC50 [4] [µM] | EC50 [7] [µM] | inhibition of binding of β-amyloid oligomers to EphB2 [5] [%] | retention latency within the bright area (cognitive function) [6] |
| --- | --- | --- | --- | --- | --- | --- | --- |
| O=c1[nH]c(=O)n(-c2ccc(N3CCOCC3)cc2)c(=O)n1-c1ccc(Oc2ccccc2)cc1 [Example 10, 1-[4-(morpholin-4-yl)phenyl]-3-(4-phenoxyphenyl)-1,3,5-triazinane-2,4,6-trione] | 2.2 | 1.1 | – | 2.8 | – | – | – |
| Cc1cc(-n2c(=O)[nH]c(=O)n(C)c2=O)ccc1Oc1ccc(SC(F)(F)F)cc1 [toltrazuril, 1-methyl-3-(3-methyl-4-{4-[(trifluoromethyl)sulfanyl]phenoxy}phenyl)-1,3,5-triazinane-2,4,6-trione] | – | – | – | – | – | 30 | – |
| N#Cc1ccc(Oc2ccc(-n3c(=O)[nH]c(=O)n(-c4ccccc4)c3=O)cc2)cc1 [Example 8, 4-[4-(2,4,6-trioxo-3-phenyl-1,3,5-triazinan-1-yl)phenoxy]benzonitrile] | – | 1.6 | 2.2 | – | – | – | – |
| O=c1[nH]c(=O)n(-c2ccc(Oc3ccc(Cl)cc3)cc2)c(=O)n1-c1ccccc1 [Example 7, 1-[4-(4-chlorophenoxy)phenyl]-3-phenyl-1,3,5-triazinane-2,4,6-trione] | – | 3.9 | 2.6 | – | – | – | – |
| COc1cccc(-n2c(=O)[nH]c(=O)n(-c3ccc(Oc4ccccc4)cc3)c2=O)c1 [Example 4, 1-(3-methoxyphenyl)-3-(4-phenoxyphenyl)-1,3,5-triazinane-2,4,6-trione] | 0.95 | 0.83 | 0.84 | 0.58 | – | – | – |
| O=c1[nH]c(=O)n(-c2ccc(Oc3ccccc3)c(OCC3COC3)c2)c(=O)n1-c1ccccc1 [Example 25, 1-[3-(oxetan-3-ylmethoxy)-4-phenoxyphenyl]-3-phenyl-1,3,5-triazinane-2,4,6-trione] | 0.79 | 0.55 | – | – | 1 | – | – |
| Cn1c(=O)[nH]c(=O)n(-c2ccc(Oc3ccccc3)c(OCC3COC3)c2)c1=O [Example 24, 1-methyl-3-[3-(oxetan-3-ylmethoxy)-4-phenoxyphenyl]-1,3,5-triazinane-2,4,6-trione] | 0.61 | 0.5 | – | – | 0.22 | – | – |
| COCCOc1cc(-n2c(=O)[nH]c(=O)n(C)c2=O)ccc1Oc1ccccc1 [Example 28, 1-[3-(2-methoxyethoxy)-4-phenoxyphenyl]-3-methyl-1,3,5-triazinane-2,4,6-trione] | 0.99 | 1 | – | – | 0.52 | – | – |
| Cn1c(=O)[nH]c(=O)n(-c2ccc(Oc3ccccc3)c(OC3CCCC3)c2)c1=O [Example 15, 1-[3-(cyclopentyloxy)-4-phenoxyphenyl]-3-methyl-1,3,5-triazinane-2,4,6-trione] | 0.65 | 0.59 | – | – | 1.1 | – | – |
| Cc1ccc(-n2c(=O)[nH]c(=O)n(-c3ccc(Oc4ccccc4)c(C)c3)c2=O)s1 [Example 40, 1-(3-methyl-4-phenoxyphenyl)-3-(5-methylthiophen-2-yl)-1,3,5-triazinane-2,4,6-trione] | 0.28 | 0.26 | – | – | 0.14 | – | – |

More lines, main results first:

| EC50 [1] [µM] | EC50 [2] [µM] | EC50 [3] [µM] | EC50 [4] [µM] | EC50 [7] [µM] | SMILES | inhibition of binding of β-amyloid oligomers to EphB2 [5] [%] | retention latency within the bright area (cognitive function) [6] |
| --- | --- | --- | --- | --- | --- | --- | --- |
| 0.27 | 0.23 | 0.27 | 0.17 | – | COc1cc(Oc2ccccc2)ccc1-n1c(=O)[nH]c(=O)n(-c2ccccc2)c1=O [Example 9, 1-(2-methoxy-4-phenoxyphenyl)-3-phenyl-1,3,5-triazinane-2,4,6-trione] | – | – |
| 0.39 | 0.34 | 0.25 | 0.29 | – | Cc1cc(-n2c(=O)[nH]c(=O)n(-c3ccccc3)c2=O)ccc1Oc1ccccc1 [Example 5, 1-(3-methyl-4-phenoxyphenyl)-3-phenyl-1,3,5-triazinane-2,4,6-trione] | – | increased retention latency |
| 0.45 | 0.32 | 0.22 | 0.34 | – | COc1cc(-n2c(=O)[nH]c(=O)n(-c3ccccc3)c2=O)ccc1Oc1ccccc1 [Example 11, 1-(3-methoxy-4-phenoxyphenyl)-3-phenyl-1,3,5-triazinane-2,4,6-trione] | – | – |
| 2.4 | 5.9 | – | 4.7 | – | N#Cc1cc(-n2c(=O)[nH]c(=O)n(-c3ccccc3)c2=O)ccc1Oc1ccccc1 [Example 12, 2-phenoxy-5-(2,4,6-trioxo-3-phenyl-1,3,5-triazinan-1-yl)benzonitrile] | – | – |
| 1.4 | 1.3 | 1.8 | 0.89 | 1.4 | O=c1[nH]c(=O)n(-c2ccc(Oc3ccccc3)cc2)c(=O)n1-c1ccccc1 [Example 1, 1-(4-phenoxyphenyl)-3-phenyl-1,3,5-triazinane-2,4,6-trione] | – | – |
| 0.25 | 0.22 | – | – | 0.19 | O=c1[nH]c(=O)n(-c2ccc(Oc3ccccc3)c(Br)c2)c(=O)n1-c1ccccc1 [Example 69, 1-(3-bromo-4-phenoxyphenyl)-3-phenyl-1,3,5-triazinane-2,4,6-trione] | – | – |
| 2 | 1.6 | – | – | 1.2 | Cc1cc(-n2c(=O)[nH]c(=O)n(-c3ccccc3)c2=O)ccc1Sc1ccccc1 [Example 34, 1-[3-methyl-4-(phenylsulfanyl)phenyl]-3-phenyl-1,3,5-triazinane-2,4,6-trione] | – | – |
| 0.26 | 0.98 | – | – | 0.5 | Cc1cn(-c2ccccc2)c2ccc(-n3c(=O)[nH]c(=O)n(-c4ccccc4)c3=O)cc12 [Example 35, 1-(3-Methyl-1-phenyl-1H-indol-5-yl)-3-phenyl-1,3,5-triazinane-2,4,6-trione] | – | – |
| – | 4.4 | 4.4 | – | – | O=c1[nH]c(=O)n(-c2ccc(OCc3ccccc3)cc2)c(=O)n1-c1ccccc1 [Example 6, 1-[4-(benzyloxy)phenyl]-3-phenyl-1,3,5-triazinane-2,4,6-trione] | – | – |
| 4.2 | 4.5 | – | – | 2.4 | Cc1cn(Cc2ccccc2)c2ccc(-n3c(=O)[nH]c(=O)n(C)c3=O)cc12 [Example 38, 1-(1-benzyl-3-methyl-1H-indol-5-yl)-3-methyl-1,3,5-triazinane-2,4,6-trione] | – | – |
| 0.5 | 0.56 | – | – | 0.34 | COCCOc1cc(-n2c(=O)[nH]c(=O)n(-c3ccccc3)c2=O)ccc1Oc1ccccc1 [Example 29, 1-[3-(2-methoxyethoxy)-4-phenoxyphenyl]-3-phenyl-1,3,5-triazinane-2,4,6-trione] | – | – |
| 0.46 | 0.95 | – | – | 1.5 | Cc1cn(Cc2ccccc2)c2ccc(-n3c(=O)[nH]c(=O)n(-c4ccccc4)c3=O)cc12 [Example 36, 1-(1-Benzyl-3-methyl-1H-indol-5-yl)-3-phenyl-1,3,5-triazinane-2,4,6-trione] | – | – |
